ChEMBL document CHEMBL6074708, “Advanced Delivery Systems and Novel Psilocin Derivatives for Enhanced Therapeutic Applications” (ACS Med Chem Lett, 2024)

The compounds below were run against 5-hydroxytryptamine receptor 2A (Homo sapiens) (UniProt P28223) (assay: Displacement of [3H]ketanserin from human 5HT2A receptor expressed in HEK293 cells at 0 to 10000 nM preincubated with compound for 30 mins followed by [3H]ketanserin addition and measured after 60 mins by microBeta scintillation counter relative to psilocin). Conditions: dose 0-10000 nM, time 90.0 min; call rule not given here.
Type: cell-based

Sequence of 5-hydroxytryptamine receptor 2A (Homo sapiens) (P28223 whole entry): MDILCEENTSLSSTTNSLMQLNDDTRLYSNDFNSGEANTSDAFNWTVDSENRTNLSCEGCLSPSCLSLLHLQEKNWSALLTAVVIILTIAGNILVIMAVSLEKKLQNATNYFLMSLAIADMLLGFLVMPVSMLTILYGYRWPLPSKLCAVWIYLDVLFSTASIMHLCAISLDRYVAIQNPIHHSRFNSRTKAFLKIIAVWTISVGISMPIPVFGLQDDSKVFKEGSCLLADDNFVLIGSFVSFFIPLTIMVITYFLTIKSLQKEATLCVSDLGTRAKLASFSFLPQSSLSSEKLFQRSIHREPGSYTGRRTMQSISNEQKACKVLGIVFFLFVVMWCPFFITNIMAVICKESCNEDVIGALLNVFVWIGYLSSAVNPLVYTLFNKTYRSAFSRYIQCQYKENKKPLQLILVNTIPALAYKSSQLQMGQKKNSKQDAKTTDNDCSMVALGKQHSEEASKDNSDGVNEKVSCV

**Q.** With `CN(C)CCc1c[nH]c2cccc(O)c12` as the compound, how does the Activity read?
**A.** Active; Same Activity Observed

**Q.** How did the Activity turn out when `CN(C)CCc1c[nH]c2cccc(OC(=O)c3cccc(C(=O)Oc4cccc5[nH]cc(CCN(C)C)c45)c3)c12` was run?
**A.** Active; Higher Activity Observed

**Q.** How did the Activity turn out when `CN(C)CCc1c[nH]c2cccc(OC(=O)c3ccccc3F)c12` was run?
**A.** Active; Same Activity Observed

**Q.** For `CN(C)CCc1c[nH]c2cccc(OC(=O)c3ccc(Br)cc3)c12`, which Activity is on record?
**A.** Active; Same Activity Observed

**Q.** For `CN(C)CCc1c[nH]c2cccc(OC(=O)CCCC(=O)Oc3cccc4[nH]cc(CCN(C)C)c34)c12`, which Activity is on record?
**A.** Active; Higher Activity Observed

**Q.** For `CN(C)CCc1c[nH]c2cccc(OC(=O)CCC(=O)Oc3cccc4[nH]cc(CCN(C)C)c34)c12`, which Activity is on record?
**A.** Active; Higher Activity Observed

**Q.** With `CN(C)CCc1c[nH]c2cccc(OC(=O)C(C)(C)C(=O)Oc3cccc4[nH]cc(CCN(C)C)c34)c12` as the compound, how does the Activity read?
**A.** Active; Higher Activity Observed

**Q.** `CN(C)CCc1c[nH]c2cccc(OC(=O)[C@H]3C[C@@H]3C(=O)Oc3cccc4[nH]cc(CCN(C)C)c34)c12` was tested. Which Activity did it give?
**A.** Active; Higher Activity Observed
